Patent US9546176B2, “Small molecule bicyclic and tricyclic CFTR correctors” (DISCOVERYBIOMED, INC., priority 2012, dated 2017)
pEC50: −log10 of the molar value.

Target: T1, delF508-CFTR (Homo sapiens, UniProt P13569, DEL508-508)
T1 construct: endogenous in cells; host or cells: CFBE41o- human CF bronchial epithelial cells (delF508 homozygous)
Assay: SPQ halide-sensitive fluorescence dye assay for rescue of halide efflux (8-point concentration-response)
Assay type: cell-based
Details: for ΔSPQ (difference between maximum and minimum SPQ values) / pEC50 / SPQ EC50: CFBE41o- cells, 48 h; for pEC50: read-out: SPQ EC50; for potency and efficacy compared with VX-809 in SPQ assay: versus VX-809
Experimental: The method of profiling can include detecting the rescue of halide efflux from a cell. The step of detecting a rescue of halide efflux from the cell can be monitored using the halide quenched dye 6-methoxy-N-(3-sulfopropyl)-quinolinium (SPQ, Molecular Probes Inc., Eugene, Oreg.). In this method, cells are treated with a compound as described herein for a period of time (e.g., 48 hours). The rescue or correction of halide efflux is then detected using the SPQ assay with the halide dye. […] Optionally, the halide efflux is chloride efflux. The method of screening can further comprise performing the method with multiple concentrations of the compound.
The compounds were initially subjected to the SPQ halide-sensitive fluorescence dye profiling assay for rescue or correction of membrane chloride ion permeability or transport with an 8-point concentration-response curve. The EC50 values for the compounds described herein were determined using SPQ (Table 1). The ΔSPQ value was calculated by determining the difference between the maximum and minimum SPQ values for the compounds.
To perform the SPQ high throughput screening assay, CFBE41o-cells were seeded into 96-well microtiter plates and were loaded with the fluorescent halide-sensitive dye, SPQ, in serum-containing culture medium. Certain wells were loaded with known positive control corrector molecules, including the industry standard Vertex 809 (VX-809; Vertex Pharmaceuticals, Cambridge, Mass.) at 3 μM, which is the maximally effective profiling dose for VX-809. The test compounds were loaded into wells and were tested in triplicate wells at a 10 μM dose and incubated over 48 hours at room temperature. During the 48 hour period, SPQ was absorbed. Plates were washed in a sodium chloride (NaCl) based Ringer and read once over two minutes to set the baseline SPQ fluorescence activity. Then, NaCl was replaced by sodium nitrate (NaNO3) based Ringer. The plates were read twice over four minutes. The primary high throughput screen (HTS) data were analyzed to detect any function of rescued delF508-CFTR under basal conditions. The plate was read up to two times to complete the SPQ HTS assay.

T1 sequence (P13569 with tags, fused parts or gaps DEL508-508): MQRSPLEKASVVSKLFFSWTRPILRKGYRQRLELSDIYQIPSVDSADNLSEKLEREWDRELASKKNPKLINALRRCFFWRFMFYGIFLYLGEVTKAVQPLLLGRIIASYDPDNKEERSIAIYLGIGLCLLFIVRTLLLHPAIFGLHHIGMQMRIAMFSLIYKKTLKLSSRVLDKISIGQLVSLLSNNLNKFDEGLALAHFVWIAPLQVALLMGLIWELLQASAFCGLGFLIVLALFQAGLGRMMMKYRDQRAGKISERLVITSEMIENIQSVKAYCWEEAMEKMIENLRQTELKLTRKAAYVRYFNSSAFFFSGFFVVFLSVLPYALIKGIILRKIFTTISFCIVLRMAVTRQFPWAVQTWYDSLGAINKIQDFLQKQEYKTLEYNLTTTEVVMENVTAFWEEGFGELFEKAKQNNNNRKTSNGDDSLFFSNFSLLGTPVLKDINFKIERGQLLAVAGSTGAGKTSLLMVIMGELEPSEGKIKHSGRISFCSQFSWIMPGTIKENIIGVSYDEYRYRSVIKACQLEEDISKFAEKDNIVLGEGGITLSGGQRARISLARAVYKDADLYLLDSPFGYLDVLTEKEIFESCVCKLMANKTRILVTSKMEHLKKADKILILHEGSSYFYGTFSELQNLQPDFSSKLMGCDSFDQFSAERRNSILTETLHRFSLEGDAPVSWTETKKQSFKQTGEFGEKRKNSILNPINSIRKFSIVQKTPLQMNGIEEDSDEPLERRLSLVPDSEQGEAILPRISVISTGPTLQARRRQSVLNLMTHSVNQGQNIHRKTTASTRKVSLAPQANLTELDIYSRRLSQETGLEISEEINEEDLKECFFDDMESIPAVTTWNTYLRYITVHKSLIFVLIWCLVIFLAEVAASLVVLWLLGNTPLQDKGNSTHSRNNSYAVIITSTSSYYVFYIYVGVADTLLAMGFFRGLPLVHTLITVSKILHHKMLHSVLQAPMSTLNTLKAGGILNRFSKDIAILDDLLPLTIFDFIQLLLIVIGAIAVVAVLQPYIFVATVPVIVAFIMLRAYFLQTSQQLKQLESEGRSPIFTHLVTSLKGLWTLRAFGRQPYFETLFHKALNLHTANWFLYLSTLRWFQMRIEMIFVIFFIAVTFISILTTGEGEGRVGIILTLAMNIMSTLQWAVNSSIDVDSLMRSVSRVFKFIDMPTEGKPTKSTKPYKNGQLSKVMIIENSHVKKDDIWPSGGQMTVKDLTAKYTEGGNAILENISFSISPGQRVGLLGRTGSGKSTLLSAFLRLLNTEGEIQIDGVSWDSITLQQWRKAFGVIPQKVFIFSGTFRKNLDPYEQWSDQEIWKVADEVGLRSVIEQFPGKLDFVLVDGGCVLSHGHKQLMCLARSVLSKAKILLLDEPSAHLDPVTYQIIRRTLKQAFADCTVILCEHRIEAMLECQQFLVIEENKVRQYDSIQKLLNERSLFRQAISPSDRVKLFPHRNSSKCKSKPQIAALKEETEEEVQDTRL

Structure (SMILES) | ΔSPQ (difference between maximum and minimum SPQ values) [RFU] | pEC50 | SPQ EC50 | potency and efficacy compared with VX-809 in SPQ assay
CSc1nc(SCC(=O)O)c2sc3c(c2n1)COC(C)(C)C3 [Compound 2] | 4862 | 4.80 |  | 
Cn1c(=O)c2nc(N3CCNCC3)[nH]c2n(C)c1=O [Compound B-2] |  |  | No effect | 
COc1ccc(CN2CCN(c3nc4c(=O)n(C)c(=O)n(C)c4[nH]3)CC2)cc1 [Compound B-7.1] | 800 | 6.05 |  | superior potency and efficacy to VX-809
COc1ccc(CN2CCN(c3nc4c(=O)n(C)c(=O)n(C)c4[nH]3)CC2)cc1OC [Compound B-7.2] |  | < 4.52 |  | 
CCOc1ccc(CN2CCN(c3nc4c(=O)n(C)c(=O)n(C)c4[nH]3)CC2)cc1 [Compound B-7.3] |  | 5.42 |  | 
CSc1ccc(CN2CCN(c3nc4c(=O)n(C)c(=O)n(C)c4[nH]3)CC2)cc1 [Compound B-7.4] |  |  | No effect to inhibitory | 
Cc1ccc(CN2CCN(c3nc4c(=O)n(C)c(=O)n(C)c4[nH]3)CC2)cc1 [Compound B-7.5] |  |  | No effect | 
Cn1c(=O)c2nc(N3CCN(Cc4ccc(OC(F)(F)F)cc4)CC3)[nH]c2n(C)c1=O [Compound B-7.6] |  |  | No effect | 
Cn1c(=O)c2nc(N3CCN(Cc4ccc(C(F)(F)F)cc4)CC3)[nH]c2n(C)c1=O [Compound B-7.7] |  |  | No effect | 
Cn1c(=O)c2nc(N3CCN(Cc4ccc5c(c4)OCCO5)CC3)[nH]c2n(C)c1=O [Compound B-7.8] |  |  | No effect | 
COc1ccccc1CN1CCN(c2nc3c(=O)n(C)c(=O)n(C)c3[nH]2)CC1 [Compound B-7.9] | 2800 | 5.49 |  | superior potency and efficacy to VX-809
COc1cccc(CN2CCN(c3nc4c(=O)n(C)c(=O)n(C)c4[nH]3)CC2)c1 [Compound B-7.10] | 3750 | 5.15 |  | superior potency and efficacy to VX-809
COc1ccc(C(=O)N2CCN(c3nc4c(=O)n(C)c(=O)n(C)c4[nH]3)CC2)cc1 [Compound B-7.12] |  | 5.21 |  | 

Results, then the compound that gave them:

ΔSPQ (difference between maximum and minimum SPQ values) [RFU] | pEC50 | SPQ EC50 | potency and efficacy compared with VX-809 in SPQ assay | Structure (SMILES)
 |  | No effect |  | Cc1cn2c3c(=O)n(C)c(=O)n(C)c3nc2n1-c1ccccc1O [Compound A-1]
4000 | 5.05 |  | superior potency and efficacy to VX-809 | Cc1cn2c3c(=O)n(C)c(=O)n(C)c3nc2n1-c1cccc(O)c1 [Compound A-2]
2100 | 5.19 |  | superior potency and efficacy to VX-809 | Cc1cn2c3c(=O)n(C)c(=O)n(C)c3nc2n1-c1ccc(O)cc1 [Compound A-3]
 |  | No effect |  | Cc1cn2c3c(=O)n(C)c(=O)n(C)c3nc2n1-c1ccccn1 [Compound A-4]
 |  | No effect |  | Cc1cn2c3c(=O)n(C)c(=O)n(C)c3nc2n1-c1cccnc1 [Compound A-5]
 |  | No effect |  | Cc1cn2c3c(=O)n(C)c(=O)n(C)c3nc2n1CCO [Compound A-7]
 |  | No effect |  | Cc1cn2c3c(=O)n(C)c(=O)n(C)c3nc2n1CCN(C)C [Compound A-8]
 |  | No effect |  | Cc1cn2c3c(=O)n(C)c(=O)n(C)c3nc2n1CC[N+](C)(C)C [Compound A-9]
 |  | No effect |  | Cc1cn2c3c(=O)n(C)c(=O)n(C)c3nc2n1CCN1CCOCC1 [Compound A-10]
 | 5.01 |  |  | Cn1c(=O)c2nc(N3CCOCC3)[nH]c2n(C)c1=O [Compound B-1]
 | 5.00 |  |  | Cn1c(=O)c2nc(N3CCN(c4ccccn4)CC3)[nH]c2n(C)c1=O [Compound B-3]
 |  | No effect |  | Cn1c(=O)c2[nH]c(N3CCN(c4ccncc4)CC3)nc2n(C)c1=O [Compound B-4]
 |  | No effect |  | Cn1c(=O)c2nc(N3CCN(c4ncccn4)CC3)[nH]c2n(C)c1=O [Compound B-5]
 |  | No effect |  | Cn1c(=O)c2[nH]c(N3CCN(c4ccc(O)cc4)CC3)nc2n(C)c1=O [Compound B-6]
